Source: patent publication US20230085307A1, “PYRIDAZINONE COMPOUND AND HERBICIDE” (NISSAN CHEMICAL CORPORATION, priority 2019, published 2023)

What was measured:
[1] = system: late watergrass; assay: Test Example 1: herbicidal activity, application before weed generation under submerged conditions (Table 16, symbol A); type: in vivo, late watergrass (Echinochloa oryzicola); details: 320 g/ha applied herbicide
Outline: (§1)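 Submerged Wagner pots (alluvial soil, 4 cm water) sown with weed seeds and planted with 2.5-leaf rice seedlings; emulsifiable concentrate diluted in water applied to water surface on sowing day. Held in greenhouse at 25-30 °C; injury scored 0-5 by herbicidal rate after three weeks.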

[2] = system: Japanese bulrush; assay: Test Example 1: herbicidal activity, application before weed generation under submerged conditions (Table 16, symbol B); type: in vivo, Japanese bulrush (Schoenoplectus juncoides); details: 320 g/ha applied herbicide
Outline: as §1

[3] = system: oval-leafed pondweed; assay: Test Example 1: herbicidal activity, application before weed generation under submerged conditions (Table 16, symbol C); type: in vivo, oval-leafed pondweed (Monochoria vaginalis); details: 320 g/ha applied herbicide
Outline: as §1

[4] = system: barnyard grass; assay: Test Example 3: herbicidal effect by foliage application, Wagner pot (Table 18, symbol H); type: in vivo, barnyard grass (Echinochloa crus-galli); details: amount of applied herbicide 320 g/ha
Outline: (§2)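 Plants were sown in alluvial soil held under 0.1–0.5 cm standing water and grown 14 days in a greenhouse at 25–30 °C. An emulsifiable formulation, water-diluted to the set dose, was then sprayed onto the foliage, and effects were scored three weeks later using previously defined criteria.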

[5] = system: Chinese sprangletop; assay: Test Example 3: herbicidal effect by foliage application, Wagner pot (Table 18, symbol D); type: in vivo, chinese sprangletop (Leptochloa chinensis); details: amount of applied herbicide 320 g/ha
Outline: as §2

[6] = system: rice flat sedge; assay: Test Example 3: herbicidal effect by foliage application, Wagner pot (Table 18, symbol E); type: in vivo, rice flat sedge (Cyperus iria); details: amount of applied herbicide 320 g/ha
Outline: as §2

[7] = system: southern crabgrass; assay: Test Example 4: herbicidal effect by soil treatment (Table 19, symbol F); type: in vivo, southern crabgrass (Digitaria ciliaris); details: amount of applied herbicide 320 g/ha
Outline: (§3)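 Three weeks of greenhouse growth at 25° C. to 30° C. followed a uniform surface spray of water-diluted emulsion at a predetermined herbicide amount. Seeds had been sown beforehand under about 1.5 cm of sterilized diluvial soil. Grading followed criteria set out in an earlier test.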

[8] = system: green foxtail; assay: Test Example 4: herbicidal effect by soil treatment (Table 19, symbol G); type: in vivo, green foxtail (Setaria viridis); details: amount of applied herbicide 320 g/ha
Outline: as §3

[9] = system: barnyard grass; assay: Test Example 4: herbicidal effect by soil treatment (Table 19, symbol H); type: in vivo, barnyard grass (Echinochloa crus-galli); details: amount of applied herbicide 320 g/ha
Outline: as §3

[10] = system: wild oat; assay: Test Example 4: herbicidal effect by soil treatment (Table 19, symbol I); type: in vivo, wild oat (Avena fatua); details: amount of applied herbicide 320 g/ha
Outline: as §3

[11] = system: blackgrass; assay: Test Example 4: herbicidal effect by soil treatment (Table 19, symbol J); type: in vivo, blackgrass (Alopecurus myosuroides); details: amount of applied herbicide 320 g/ha
Outline: as §3

[12] = system: Italian ryegrass; assay: Test Example 4: herbicidal effect by soil treatment (Table 19, symbol K); type: in vivo, Italian ryegrass (Lolium multiflorum); details: amount of applied herbicide 320 g/ha
Outline: as §3

[13] = system: windgrass; assay: Test Example 4: herbicidal effect by soil treatment (Table 19, symbol L); type: in vivo, windgrass (Apera spica-venti); details: amount of applied herbicide 320 g/ha
Outline: as §3

[14] = system: velvetleaf; assay: Test Example 4: herbicidal effect by soil treatment (Table 19, symbol M); type: in vivo, velvetleaf (Abutilon theophrasti); details: amount of applied herbicide 320 g/ha
Outline: as §3

[15] = system: redroot pigweed; assay: Test Example 4: herbicidal effect by soil treatment (Table 19, symbol N); type: in vivo, redroot pigweed (Amaranthus retroflexus); details: amount of applied herbicide 320 g/ha
Outline: as §3

[16] = system: lambsquarters; assay: Test Example 4: herbicidal effect by soil treatment (Table 19, symbol O); type: in vivo, lambsquarters (Chenopodium album); details: amount of applied herbicide 320 g/ha
Outline: as §3

[17] = system: chickweed; assay: Test Example 4: herbicidal effect by soil treatment (Table 19, symbol P); type: in vivo, common chickweed (Stellaria media); details: amount of applied herbicide 320 g/ha
Outline: as §3

[18] = system: false cleavers; assay: Test Example 4: herbicidal effect by soil treatment (Table 19, symbol Q); type: in vivo, false cleavers (Galium spurium); details: amount of applied herbicide 320 g/ha
Outline: as §3

[19] = system: persian speedwell; assay: Test Example 4: herbicidal effect by soil treatment (Table 19, symbol R); type: in vivo, Persian speedwell (Veronica persica); details: amount of applied herbicide 320 g/ha
Outline: as §3

[20] = system: southern crabgrass; assay: Test Example 5: herbicidal effect by foliage application, plastic box (Table 20, symbol F); type: in vivo, southern crabgrass (Digitaria ciliaris); details: foliage application, AAH 320 g/ha, evaluated three weeks after application
Outline: (§4)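 Plants sown in sterilized diluvial soil and grown 14 days in a greenhouse at 25° C to 30° C, then sprayed on the foliage with the compound's emulsion diluted in water to a predetermined herbicide amount. Injury to weeds and crops scored three weeks after application on a visual rating scale.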

[21] = system: green foxtail; assay: Test Example 5: herbicidal effect by foliage application, plastic box (Table 20, symbol G); type: in vivo, green foxtail (Setaria viridis); details: foliage application, AAH 320 g/ha, evaluated three weeks after application
Outline: as §4

[22] = system: barnyard grass; assay: Test Example 5: herbicidal effect by foliage application, plastic box (Table 20, symbol H); type: in vivo, barnyard grass (Echinochloa crus-galli); details: foliage application, AAH 320 g/ha, evaluated three weeks after application
Outline: as §4

[23] = system: wild oat; assay: Test Example 5: herbicidal effect by foliage application, plastic box (Table 20, symbol I); type: in vivo, wild oat (Avena fatua); details: foliage application, AAH 320 g/ha, evaluated three weeks after application
Outline: as §4

[24] = system: blackgrass; assay: Test Example 5: herbicidal effect by foliage application, plastic box (Table 20, symbol J); type: in vivo, blackgrass (Alopecurus myosuroides); details: foliage application, AAH 320 g/ha, evaluated three weeks after application
Outline: as §4

[25] = system: Italian ryegrass; assay: Test Example 5: herbicidal effect by foliage application, plastic box (Table 20, symbol K); type: in vivo, Italian ryegrass (Lolium multiflorum); details: foliage application, AAH 320 g/ha, evaluated three weeks after application
Outline: as §4

[26] = system: windgrass; assay: Test Example 5: herbicidal effect by foliage application, plastic box (Table 20, symbol L); type: in vivo, windgrass (Apera spica-venti); details: foliage application, AAH 320 g/ha, evaluated three weeks after application
Outline: as §4

[27] = system: velvetleaf; assay: Test Example 5: herbicidal effect by foliage application, plastic box (Table 20, symbol M); type: in vivo, velvetleaf (Abutilon theophrasti); details: foliage application, AAH 320 g/ha, evaluated three weeks after application
Outline: as §4

[28] = system: redroot pigweed; assay: Test Example 5: herbicidal effect by foliage application, plastic box (Table 20, symbol N); type: in vivo, redroot pigweed (Amaranthus retroflexus); details: foliage application, AAH 320 g/ha, evaluated three weeks after application
Outline: as §4

[29] = system: lambsquarters; assay: Test Example 5: herbicidal effect by foliage application, plastic box (Table 20, symbol O); type: in vivo, lambsquarters (Chenopodium album); details: foliage application, AAH 320 g/ha, evaluated three weeks after application
Outline: as §4

[30] = system: chickweed; assay: Test Example 5: herbicidal effect by foliage application, plastic box (Table 20, symbol P); type: in vivo, common chickweed (Stellaria media); details: foliage application, AAH 320 g/ha, evaluated three weeks after application
Outline: as §4

[31] = system: persian speedwell; assay: Test Example 5: herbicidal effect by foliage application, plastic box (Table 20, symbol R); type: in vivo, Persian speedwell (Veronica persica); details: foliage application, AAH 320 g/ha, evaluated three weeks after application
Outline: as §4

For Cc1nn(C)c(=O)c(-c2c(-c3cccc(O)c3)sc3ccc(F)cc23)c1O [2-336], the “Herbicidal effect on A: late watergrass (grade 0-5)” value [1] was 0 (Herbicidal rate of 5% or less (almost no effect)), the “Herbicidal effect on B: Japanese bulrush (grade 0-5)” value [2] was 3 (Herbicidal rate of 40% or more and less than 70%) and the “Herbicidal effect on C: oval-leafed pondweed (grade 0-5)” value [3] was 0 (Herbicidal rate of 5% or less (almost no effect)). The “herbicidal effect on H: barnyard grass” value [4] was 5 (Herbicidal rate of 90% or more (almost completely withered)), the “herbicidal effect on D: Chinese sprangletop” value [5] was 0 (Herbicidal rate of 5% or less (almost no effect)) and the “herbicidal effect on E: rice flat sedge” value [6] was 3 (Herbicidal rate of 40% or more and less than 70%). For the same molecule, the “herbicidal effect on F: southern crabgrass” value [7] was 3 (Herbicidal rate of 40% or more and less than 70%), the “herbicidal effect on G: green foxtail” value [8] was 5 (Herbicidal rate of 90% or more (almost completely withered)) and the “herbicidal effect on H: barnyard grass” value [9] was 4 (Herbicidal rate of 70% or more and less than 90%). The “herbicidal effect on I: wild oat” value [10] was 0 (Herbicidal rate of 5% or less (almost no effect)), the “herbicidal effect on J: blackgrass” value [11] was 0 (Herbicidal rate of 5% or less (almost no effect)) and the “herbicidal effect on K: Italian ryegrass” value [12] was 3 (Herbicidal rate of 40% or more and less than 70%). The “herbicidal effect on L: windgrass” value [13] was 0 (Herbicidal rate of 5% or less (almost no effect)), the “herbicidal effect on M: velvetleaf” value [14] was 3 (Herbicidal rate of 40% or more and less than 70%) and the “herbicidal effect on N: redroot pigweed” value [15] was 5 (Herbicidal rate of 90% or more (almost completely withered)). The “herbicidal effect on O: lambsquarters” value [16] was 3 (Herbicidal rate of 40% or more and less than 70%), the “herbicidal effect on P: chickweed” value [17] was 3 (Herbicidal rate of 40% or more and less than 70%) and the “herbicidal effect on Q: false cleavers” value [18] was 0 (Herbicidal rate of 5% or less (almost no effect)). The “herbicidal effect on R: persian speedwell” value [19] was 5 (Herbicidal rate of 90% or more (almost completely withered)), the “F: southern crabgrass, herbicidal effect (criteria 0-5)” value [20] was 5 (Herbicidal rate of 90% or more (almost completely withered)) and the “G: green foxtail, herbicidal effect (criteria 0-5)” value [21] was 5 (Herbicidal rate of 90% or more (almost completely withered)). The “H: barnyard grass, herbicidal effect (criteria 0-5)” value [22] was 1 (Herbicidal rate of 5% or more and less than 20%), the “I: wild oat, herbicidal effect (criteria 0-5)” value [23] was 0 (Herbicidal rate of 5% or less (almost no effect)) and the “J: blackgrass, herbicidal effect (criteria 0-5)” value [24] was 3 (Herbicidal rate of 40% or more and less than 70%). The “K: Italian ryegrass, herbicidal effect (criteria 0-5)” value [25] was 4 (Herbicidal rate of 70% or more and less than 90%), the “L: windgrass, herbicidal effect (criteria 0-5)” value [26] was 4 (Herbicidal rate of 70% or more and less than 90%) and the “M: velvetleaf, herbicidal effect (criteria 0-5)” value [27] was 1 (Herbicidal rate of 5% or more and less than 20%). The “N: redroot pigweed, herbicidal effect (criteria 0-5)” value [28] was 5 (Herbicidal rate of 90% or more (almost completely withered)), the “O: lambsquarters, herbicidal effect (criteria 0-5)” value [29] was 4 (Herbicidal rate of 70% or more and less than 90%) and the “P: chickweed, herbicidal effect (criteria 0-5)” value [30] was 5 (Herbicidal rate of 90% or more (almost completely withered)). The “R: persian speedwell, herbicidal effect (criteria 0-5)” value [31] was 5 (Herbicidal rate of 90% or more (almost completely withered)).
